# How the values were obtained:
# [1] = test system: colorectal cancer LoVo cells; assay: Cell growth inhibition assay (MTS assay), LoVo; format: cell-based; conditions: Homo sapiens, 48 hours
# A431 cells [2] = assay: Cell growth inhibition assay (MTS assay), A431; format: cell-based; conditions: Homo sapiens
# [3] = molecular target: T1, A431 cells EGFR-TK phosphorylation stimulated by EGF (Homo sapiens, UniProt P00533); assay: Inhibition of cellular EGFR-TK phosphorylation stimulated by EGF in A431 cells; format: cell-based; conditions: for EC50: A431 cells EGFR-TK phosphorylation stimulated by EGF (Table 4); for inhibition at 3 µM: A-431, concentration of 3 μM, A431 cells, EGF stimulated, one-time measurement at a single concentration (preliminary selection), NA = No activity, read-out: Inhibition Percent (%)
# T1 construct: against A431 cells EGFR-TK; endogenous in cells; host or cells: A431 cells
# Protocol: Inhibition Experiment of Cellular Epidermal Growth Factor Receptor Tyrosine Kinase
# 1) A431 cells were cultured in a medium which was prepared by adding 10% FCS into another medium comprising 50% DMEM and 50% F12.
# 2) A431 cells grown in six-well plates were cultured in a serum-free medium for 24 hours. During the 24 hour period the medium was replenished once after 12 hours.
# 3) A solution containing a compound to be assessed was added the A431 cells and the cells were cultured for 2 hours, supplemented twice by a medium free of the compound, and then EGF (100 ng/well) was added, and cultured for 5 minutes.
# 4) A431 cell homogenate was prepared by Laemili buffer which comprised 2% sodium dodecyl sulfonate (SDS), 5% 2-mercaptoethanol, 10% glycerol and 5 mM Tris (pH 6.8).
# 5) The A431 cell homogenate was heated for 5 minutes at 100° C.
# 6) Proteins in the A431 cell homogenates were separated by PAGE and transferred onto a nitrocellulose membrane, and an infrared reading was obtained.
# BT474 cells [4] = assay: Cell growth inhibition assay (MTS assay), BT474; conditions: Homo sapiens, BT-474, 48 h, read-out: Growth inhibition activity (EC50) BT474
# Protocol: (§1) Cell Growth Inhibition Assay (MTS Assay)
# (§2) A431: human epithelial adenocarcinoma cell strain; LoVo: human colorectal cancer cell strain; BT474: breast cancer; SK-Br-3: breast cancer; SIT solution (SIGMA); RPMI1640 culture solution; phosphoric acid buffer; Dimethyl Sulphoxide (DMSO); MTS solution (Promega), 96 well cell culture plate, representative anti-cancer compounds.
# (§3) The cells were cultured overnight under the condition of 5% CO2 and 37° C. The next day, representative anti-cancer compounds (between 3 and 10 mM) were dissolved by dimethyl sulphoxide (DMSO) as a mother solution. Adriamycin was used as positive control, DMSO was used as negative control. According to experimental design, the mother solution was diluted and added to the 96 well cell culture plate, cultured for 48 hours under the condition of 5% CO2 and 37° C. Subsequently, 20 μL of MTS solution was added to each well of the 96 well cell culture plate and cultured for another 2 to 4 hours under the condition of 5% CO2 and 37° C. Absorbance was read at 490 nm wavelength, and converted into cell survival rate.
# (§4) For each concentration, there two measurements were taken and the average was obtained.
# [5] = molecular target: T2, BT474 cells Her-2 receptor TK phosphorylation stimulated by Her-2 (Homo sapiens, UniProt P04626); assay: Inhibition of BT474 cells Her-2 receptor TK phosphorylation; format: cell-based
# T2 construct: against BT474 cells; endogenous in cells; host or cells: BT474 cells
# Protocol: Following literature procedured, inhibitory activity of representative compounds against BT474 cells Her-2 receptor TK phosphorylation stimulated by Her-2 was measured, and partial results are listed in Table 6.
# SK-Br-3 cells = assay: Cell growth inhibition assay (MTS assay), SK-Br-3; conditions: Homo sapiens, SK-BR-3, 48 h, read-out: Growth inhibition activity (EC50) SK-Br-3
# Protocol: as §1, §2, §3, §4
# BT474 cells [6] = assay: BT-474 cell growth inhibition assay (SRB assay); format: cell-based; conditions: Homo sapiens, concentration of 3 μM, 72 h, read-out: Inhibition Percent (%)
# Protocol: BT-474 Cell Growth Inhibition Assay (SRB Assay)
# BT-474 human breast cancer cell lines were kindly provided by Dr. Changnian Liu, Pharmaron Beijing Co., Ltd.
# BT-474 cells were cultured in 37° C., 5% CO2, saturated humidity until logarithmic phase. Discarded culture medium, washed cells once by PBS. Added 1 ml Trypsin/EDTA solution, stood at 37° C. for 5 min, allowed the cells to detach. Added culture medium, adjusted the cells density to 1×10^5 cells/ml.
# Day 0, added 100 μl/well cells suspension to 96-well cell culture plates. Incubated overnight to let the cells attach completely.
# Day 1, compounds (2 mM in DMSO as stock solution) was diluted to 20 μM in EMEM. Then a fourfold serial dilution was made. These diluted compounds were made as 10× reaction solutions, and the concentration of DMSO was kept at 1%.
# Added 80 μl culture medium and 20 μl 10× compound reaction solution to the testing wells, or vehicle control to the control wells. Co-incubated cells with compounds for another 72 h.
# Day 3, fixed cellular protein by the addition of 100 μl/well of 10% TCA (diluting from 50% TCA) at 4° C. for 1 h. Rinsed TCA using plate washer, and washed five times using distilled water. Removed the residual wash solution with a piece of absorbent paper. Added 100 μl/well 0.4% SRB solution, allowed a 15-30 min staining period. Removed the SRB, and washed the culture plates five times using 1% acetic acid. Removed the residual wash solution with a piece of absorbent paper. Air-dried the culture plates, dissolved the protein-bound dye with 100 μl/well of 10 mM Tris base solution. Shook the plates until the dye was dissolved completely.
# A431 cells [7] = assay: A431 cell growth inhibition assay (MTT assay); format: cell-based; conditions: Homo sapiens; for EC50: A-431, 72 hours (Table 11); for inhibition at 3 µM: A-431, concentration of 3 μM, 72 hours, read-out: Inhibition Percent (%)
# How it was run: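 A431 epidermoid carcinoma cells in DMEM/F12 (1:1) with 10% FBS were seeded at 2.5×10^4 cells/mL, attached overnight, then exposed to compound (final 10 μM to 1.52 nM) for 72 h at 37° C, 5% CO2. Viability was read by MTT (0.5 mg/mL, 4 h), formazan dissolved in DMSO, absorbance 490 nm.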
# [8] = A-431, A431 cells, MTS, 48 hours, read-out: Growth inhibition activity EC50
# T2 sequence (P04626 23-1255): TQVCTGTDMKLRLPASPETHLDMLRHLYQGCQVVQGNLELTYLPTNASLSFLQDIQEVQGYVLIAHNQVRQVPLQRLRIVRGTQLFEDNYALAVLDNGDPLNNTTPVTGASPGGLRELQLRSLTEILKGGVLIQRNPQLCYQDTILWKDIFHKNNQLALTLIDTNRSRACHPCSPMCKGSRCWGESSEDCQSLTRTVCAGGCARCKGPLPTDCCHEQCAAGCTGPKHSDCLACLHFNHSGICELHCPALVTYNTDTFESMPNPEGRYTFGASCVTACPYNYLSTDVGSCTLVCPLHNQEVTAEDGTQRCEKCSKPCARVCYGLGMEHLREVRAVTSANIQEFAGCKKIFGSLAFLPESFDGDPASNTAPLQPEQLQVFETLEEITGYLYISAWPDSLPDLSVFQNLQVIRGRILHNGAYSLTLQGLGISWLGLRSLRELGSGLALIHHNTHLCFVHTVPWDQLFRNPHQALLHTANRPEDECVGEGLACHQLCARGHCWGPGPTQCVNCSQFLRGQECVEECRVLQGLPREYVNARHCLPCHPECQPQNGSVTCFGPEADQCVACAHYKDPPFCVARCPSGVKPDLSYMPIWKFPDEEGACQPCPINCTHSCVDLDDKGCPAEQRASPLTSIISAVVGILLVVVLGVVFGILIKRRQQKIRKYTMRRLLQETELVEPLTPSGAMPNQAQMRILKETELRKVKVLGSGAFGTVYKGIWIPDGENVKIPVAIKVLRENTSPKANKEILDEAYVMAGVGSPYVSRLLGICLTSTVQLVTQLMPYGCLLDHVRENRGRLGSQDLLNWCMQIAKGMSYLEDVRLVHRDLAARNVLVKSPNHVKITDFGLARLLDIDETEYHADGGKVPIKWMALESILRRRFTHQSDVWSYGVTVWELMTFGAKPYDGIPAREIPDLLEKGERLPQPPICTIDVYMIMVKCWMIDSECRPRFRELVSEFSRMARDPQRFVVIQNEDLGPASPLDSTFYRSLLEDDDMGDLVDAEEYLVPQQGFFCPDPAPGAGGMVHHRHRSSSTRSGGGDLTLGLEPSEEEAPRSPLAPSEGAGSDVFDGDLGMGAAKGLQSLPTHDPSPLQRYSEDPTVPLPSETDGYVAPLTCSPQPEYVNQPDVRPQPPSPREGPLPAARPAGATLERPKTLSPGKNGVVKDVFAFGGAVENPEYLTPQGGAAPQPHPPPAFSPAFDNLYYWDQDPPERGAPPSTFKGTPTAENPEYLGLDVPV
# T1 sequence (P00533 25-1210): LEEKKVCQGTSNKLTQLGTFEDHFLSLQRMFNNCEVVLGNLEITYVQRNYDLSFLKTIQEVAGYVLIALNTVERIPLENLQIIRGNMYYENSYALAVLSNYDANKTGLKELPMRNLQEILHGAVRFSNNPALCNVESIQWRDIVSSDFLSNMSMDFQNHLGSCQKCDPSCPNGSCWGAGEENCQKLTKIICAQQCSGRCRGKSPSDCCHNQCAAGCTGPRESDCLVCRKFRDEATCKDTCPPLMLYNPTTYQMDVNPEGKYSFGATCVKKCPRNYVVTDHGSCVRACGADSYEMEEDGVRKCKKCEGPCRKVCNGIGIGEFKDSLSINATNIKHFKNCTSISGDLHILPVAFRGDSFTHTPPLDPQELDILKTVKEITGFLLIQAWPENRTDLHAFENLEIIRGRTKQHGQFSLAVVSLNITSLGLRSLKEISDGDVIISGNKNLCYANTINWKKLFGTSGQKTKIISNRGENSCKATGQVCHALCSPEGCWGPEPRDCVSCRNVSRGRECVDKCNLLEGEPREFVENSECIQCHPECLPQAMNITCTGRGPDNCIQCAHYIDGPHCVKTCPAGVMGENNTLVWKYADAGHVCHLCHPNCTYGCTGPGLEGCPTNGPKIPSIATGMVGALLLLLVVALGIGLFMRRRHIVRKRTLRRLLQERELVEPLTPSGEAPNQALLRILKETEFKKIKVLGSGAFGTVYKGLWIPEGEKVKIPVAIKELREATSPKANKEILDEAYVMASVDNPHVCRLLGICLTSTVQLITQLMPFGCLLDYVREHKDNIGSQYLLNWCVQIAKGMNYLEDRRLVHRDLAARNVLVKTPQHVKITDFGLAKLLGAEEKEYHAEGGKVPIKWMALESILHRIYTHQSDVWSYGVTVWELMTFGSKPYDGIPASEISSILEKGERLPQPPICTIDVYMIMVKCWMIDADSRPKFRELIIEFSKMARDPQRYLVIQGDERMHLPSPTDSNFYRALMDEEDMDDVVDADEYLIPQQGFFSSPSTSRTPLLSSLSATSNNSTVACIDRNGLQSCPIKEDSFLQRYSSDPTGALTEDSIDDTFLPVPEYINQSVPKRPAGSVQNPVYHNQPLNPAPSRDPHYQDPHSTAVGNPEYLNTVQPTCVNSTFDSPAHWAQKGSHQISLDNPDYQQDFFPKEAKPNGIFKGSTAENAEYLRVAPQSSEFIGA
Structure (SMILES),EC50 [1],EC50 (A431 cells [2]; [8]),inhibition at 3 µM [3],also measured
"COc1cccc2c1C(=O)c1c(O)c3c(c(O)c1C2=O)C[C@@](O)(C(=O)CO)C[C@@H]3O[C@H]1C[C@H](N)[C@H](O)[C@H](C)O1 [Adriamycin, reference compound]",1500 nM,–,–,–
"C#Cc1cccc(Nc2ncnc3ccc(NC(=O)C=C4CCNCC4)cc23)c1 [Example 3, N-(4-(3-ethynylphenylamino)quinazolin-6-yl)-2-(piperidin-4-ylidene)acetamide]",–,2 µM,85%,EC50 [3]: 150 nM
"C#Cc1cccc(Nc2ncnc3ccc(NC(=O)C=C4CCN(C)CC4)cc23)c1 [Example 4, N-(4-(3-ethynylphenylamino)quinazolin-6-yl)-2-(1-methylpiperidin-4-ylidene)acetamide]",–,1.8 µM,78%,EC50 [3]: 580 nM
"C#Cc1cccc(Nc2ncnc3ccc(NC(=O)C=C4CCN(CCOC)CC4)cc23)c1 [Example 7, N-(4-(3-ethynylphenylamino)quinazolin-6-yl)-2-(1-(2-methoxyethyl)piperidin-4-ylidene)acetamide]",–,5 µM,65%,EC50 [3]: 400 nM
"C[C@H](Nc1ncnc2ccc(NC(=O)C=C3CCNCC3)cc12)c1ccccc1 [Example 34, N-(4-((S)-1-phenylethylamino)quinazolin-6-yl)-2-(piperidin-4-ylidene)acetamide]",–,13 µM,68%,EC50 [3]: 760 nM
"O=C(C=C1CCNCC1)Nc1ccc2ncnc(Nc3cccc(Cl)c3)c2c1 [Example 36, N-(4-(3-chlorophenylamino)quinazolin-6-yl)-2-(piperidin-4-ylidene)acetamide]",–,30 µM,57%,EC50 [3]: 980 nM
"COc1cc2ncnc(Nc3cccc(Br)c3)c2cc1NC(=O)C=C1CCNCC1 [Example 38, N-(4-(3-bromophenylamino)-7-methoxyquinazolin-6-yl)-2-(piperidin-4-ylidene)acetamide]",1600 nM,0.014 µM,94%,–
"O=C(C=C1CCNCC1)Nc1ccc2ncnc(Nc3ccc4[nH]ccc4c3)c2c1 [Example 41, N-(4-(1H-indol-5-ylamino)quinazolin-6-yl)-2-(piperidin-4-ylidene)acetamide]",–,1.5 µM,71%,–
"C#Cc1cccc(Nc2ncnc3cc(OC)c(NC(=O)C=C4CCNCC4)cc23)c1 [Example 42, N-(4-(3-ethynylphenylamino)-7-methoxyquinazolin-6-yl)-2-(piperidin-4-ylidene)acetamide]",3000 nM,0.12 µM,–,–
"COc1cc2ncnc(Nc3ccc(F)c(Cl)c3)c2cc1NC(=O)C=C1CCNCC1 [Example 43, N-(4-(3-chloro-4-fluorophenylamino)-7-methoxyquinazolin-6-yl)-2-(piperidin-4-ylidene)acetamide]",1500 nM,0.11 µM,91%,EC50 (BT474 cells [4]): 610 nM; EC50 [5]: 350 nM; EC50 (SK-Br-3 cells): 520 nM
"C#Cc1cccc(Nc2ncnc3cc(OCCCOC)c(NC(=O)C=C4CCNCC4)cc23)c1 [Example 50, N-(4-(3-ethynylphenylamino)-7-(3-methoxypropoxy)quinazolin-6-yl)-2-(piperidin-4-ylidene)acetamide]",–,0.15 µM,95%,–
"C#Cc1cccc(Nc2ncnc3cc(OC)c(NC(=O)C=C4CCN(C)CC4)cc23)c1 [Example 51, N-(4-(3-ethynylphenylamino)-7-methoxyquinazolin-6-yl)-2-(1-methylpiperidin-4-ylidene)acetamide]",7600 nM,0.12 µM,94%,–
"COc1cc2ncnc(Nc3ccc(F)c(Cl)c3)c2cc1NC(=O)C=C1CCN(C)CC1 [Example 72, N-(4-(3-chloro-4-fluorophenylamino)-7-methoxyquinazolin-6-yl)-2-(1-methylpiperidin-4-ylidene)acetamide]",1800 nM,0.09 µM,97%,EC50 (BT474 cells [4]): 1310 nM; EC50 [5]: 820 nM; EC50 (SK-Br-3 cells): 800 nM
"COc1cc2ncnc(Nc3ccc(OCc4cccc(F)c4)c(Cl)c3)c2cc1NC(=O)C=C1CCNCC1 [Example 105, N-(4-(4-(3-fluorobenzyloxy)-3-chlorophenylamino)-7-methoxyquinazolin-6-yl)-2-(piperidin-4-ylidene)acetamide]",–,–,44%,EC50 [5]: 480 nM
"N#Cc1cnc2ccc(N)cc2c1Nc1cccc(Br)c1 [Example 134, 6-amino-4-(3-bromophenylamino)quinoline-3-carbonitrile]",–,0.9 µM,59%,–
"CS(=O)(=O)CCNCc1ccc(-c2ccc3ncnc(Nc4ccc(OCc5cccc(F)c5)c(Cl)c4)c3c2)o1 [Lapatinib, reference compound]",–,–,–,"EC50 (A431 cells [2]; A-431, 48 h, read-out: Growth inhibition activity EC50 (μM)): 1.19 µM; EC50 (BT474 cells [4]): 120 nM; EC50 (SK-Br-3 cells): 70 nM"

# More lines, main results first:
EC50 [1],EC50 (A431 cells [2]; [8]),inhibition at 3 µM [3],Structure (SMILES),also measured
7000 nM,3 µM,–,"COc1cc2ncnc(Nc3ccc(OCc4ccccn4)c(Cl)c3)c2cc1NC(=O)C=C1CCNCC1 [Example 108, N-(4-(3-chloro-4-(pyridin-2-ylmethoxy)phenylamino)-7-methoxyquinazolin-6-yl)-2-(piperidin-4-ylidene)acetamide]",EC50 (BT474 cells [4]): 1570 nM; EC50 [5]: 180 nM; EC50 (SK-Br-3 cells): 530 nM
–,1.9 µM,41%,"COCCN1CCC(=CC(=O)Nc2cc3c(Nc4ccc(OCc5ccccn5)c(Cl)c4)ncnc3cc2OC)CC1 [Example 118, N-(4-(3-chloro-4-(pyridin-2-ylmethoxy)phenylamino)-7-methoxyquinazolin-6-yl)-2-(1-(2-methoxyethyl)piperidin-4-ylidene)acetamide]",–
–,0.25 µM,96%,"CCOc1cc2ncc(C#N)c(Nc3ccc(OCc4ccccn4)c(Cl)c3)c2cc1NC(=O)C=C1CCNCC1 [Example 143, N-(4-(3-chloro-4-(pyridin-2-ylmethoxy)phenylamino)-3-cyano-7-ethoxyquinolin-6-yl)-2-(piperidin-4-ylidene)acetamide]",inhibition at 3 µM (BT474 cells [6]): 55%; EC50 (A431 cells [7]): 1450 nM; inhibition at 3 µM (A431 cells [7]): 70%
–,–,46%,"CCOc1cc2ncc(C#N)c(Nc3ccc(F)c(Cl)c3)c2cc1NC(=O)C=C1CCNCC1 [Example 150, N-(4-(3-chloro-4-fluorophenylamino)-3-cyano-7-ethoxyquinolin-6-yl)-2-(piperidin-4-ylidene)acetamide]",inhibition at 3 µM (BT474 cells [6]): 56%; EC50 [5]: 260 nM; EC50 (A431 cells [7]): 170 nM; inhibition at 3 µM (A431 cells [7]): 95%
3100 nM,0.11 µM,–,"CCOc1cc2ncc(C#N)c(Nc3cccc(Br)c3)c2cc1NC(=O)C=C1CCNCC1 [Example 154, N-(4-(3-bromophenylamino)-3-cyano-7-ethoxyquinolin-6-yl)-2-(piperidin-4-ylidene)acetamide]",–

# — US8765946B2, “Methods of preparing and using quinazoline and quinoline derivatives” (priority 2006, dated 2014)
